Laboratory results taken from ChEMBL document CHEMBL1201861, “Genomics of Drug Sensitity in Cancer screening data, Wellcome Trust Sanger Institute”.

What was measured:
Test in all cases: cells
CWR22R = assay type: functional, cell-based, Homo sapiens; details: Homo sapiens, 22Rv1;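 further: growth inhibition of 22Rv1 cells, read out with a cell viability assay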
Description: SANGER: Inhibition of human 22RV1 cell growth in a cell viability assay.

Lu-65 = assay type: functional, cell-based; details: Homo sapiens;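 further: growth inhibition of Lu-65 cancer cells, read out by a cell viability assay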
Description: SANGER: Inhibition of human LU-65 cell growth in a cell viability assay.

no-11 = assay type: functional, cell-based, Homo sapiens; details: Homo sapiens;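 further: growth inhibition of human NO-11 cells, read out with a cell viability assay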
Description: SANGER: Inhibition of human no-11 cell growth in a cell viability assay.

KYSE-270 = assay type: functional, cell-based, Homo sapiens; details: Homo sapiens, KYSE-270;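 further: cell growth inhibition measured with a viability assay in the human KYSE-270 line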
Description: SANGER: Inhibition of human KYSE-270 cell growth in a cell viability assay.

NCI-H2087 = assay type: functional, cell-based, Homo sapiens; details: Homo sapiens, NCI-H2087;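 further: growth inhibition determined with a cell viability readout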
Description: SANGER: Inhibition of human NCI-H2087 cell growth in a cell viability assay.

NCI-H292 = assay type: functional, cell-based, Homo sapiens; details: Homo sapiens, NCI-H292;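 further: growth inhibition of NCI-H292 cells, read out with a cell viability assay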
Description: SANGER: Inhibition of human NCI-H292 cell growth in a cell viability assay.

GP5d = assay type: functional, cell-based, Homo sapiens; details: Homo sapiens, GP5d;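 further: growth inhibition of human GP5d cells, read out with a cell viability assay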
Description: SANGER: Inhibition of human GP5d cell growth in a cell viability assay.

HH = assay type: functional, cell-based; details: Homo sapiens
Description: SANGER: Inhibition of human HH cell growth in a cell viability assay.

SW1573 = assay type: functional, cell-based, Homo sapiens; details: Homo sapiens, SW1573;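 further: growth inhibition of SW1573 cells, read out with a cell viability assay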
Description: SANGER: Inhibition of human SW1573 cell growth in a cell viability assay.

NCI-H1395 = assay type: functional, cell-based, Homo sapiens; details: Homo sapiens, NCI-H1395;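 further: cell viability assay read-out quantifying reduced proliferation of human NCI-H1395 cells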
Description: SANGER: Inhibition of human NCI-H1395 cell growth in a cell viability assay.

SW872 = assay type: functional, cell-based, Homo sapiens; details: Homo sapiens, SW872;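 further: growth inhibition of SW872 cells, read out by a viability assay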
Description: SANGER: Inhibition of human SW872 cell growth in a cell viability assay.

S-117 = assay type: functional, cell-based, Homo sapiens; details: Homo sapiens, S-117
Description: SANGER: Inhibition of human S-117 cell growth in a cell viability assay.

ES7 = assay type: functional, cell-based, Homo sapiens; details: Homo sapiens, ES7;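 further: growth inhibition of cultured human ES7 cells, read out as cell viability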
Description: SANGER: Inhibition of human ES7 cell growth in a cell viability assay.

LoVo = assay type: functional, cell-based; details: Homo sapiens;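 further: growth inhibition of human LoVo cells, read out with a cell viability assay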
Description: SANGER: Inhibition of human LoVo cell growth in a cell viability assay.

BE-13 = assay type: functional, cell-based; details: Homo sapiens;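 further: growth inhibition of human BE-13 cells, measured with a cell viability assay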
Description: SANGER: Inhibition of human BE-13 cell growth in a cell viability assay.

RH-1 = assay type: functional, cell-based, Homo sapiens; details: Homo sapiens, RH-1;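 further: growth inhibition of human RH-1 cells, read out with a cell viability assay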
Description: SANGER: Inhibition of human RH-1 cell growth in a cell viability assay.

EW-24 = assay type: functional, cell-based; details: Homo sapiens;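 further: human EW-24 cancer cell line, growth inhibition read out via a cell viability assay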
Description: SANGER: Inhibition of human EW-24 cell growth in a cell viability assay.

MDA-MB-415 = assay type: functional, cell-based; details: Homo sapiens
KG-1 = assay type: functional, cell-based; details: Homo sapiens;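 further: growth inhibition of KG-1 cells, read out by a cell viability assay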
Description: SANGER: Inhibition of human KG-1 cell growth in a cell viability assay.

KLE = assay type: functional, cell-based, Homo sapiens; details: Homo sapiens, KLE;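 further: growth inhibition of human KLE cells, read out with a cell viability assay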
Description: SANGER: Inhibition of human KLE cell growth in a cell viability assay.

IST-MES1 = assay type: functional, cell-based, Homo sapiens; details: Homo sapiens, IST-MES1;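 further: growth inhibition of IST-MES1 cells, measured with a cell viability assay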
Description: SANGER: Inhibition of human IST-MES1 cell growth in a cell viability assay.

C-33-A = assay type: functional, cell-based, Homo sapiens; details: Homo sapiens, C-33-A;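 further: cell viability assay measuring growth inhibition of C-33-A cells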
Description: SANGER: Inhibition of human C-33-A cell growth in a cell viability assay.

A704 = assay type: functional, cell-based, Homo sapiens; details: Homo sapiens, A704;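 further: growth inhibition of human A704 cells, read out with a cell viability assay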
Description: SANGER: Inhibition of human A704 cell growth in a cell viability assay.

CP50-MEL-B = assay type: functional, cell-based, Homo sapiens; details: Homo sapiens, CP50-MEL-B;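 further: growth inhibition of the human cell line, measured with a cell viability read-out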
Description: SANGER: Inhibition of human CP50-MEL-B cell growth in a cell viability assay.

NCI-H82 = assay type: functional, cell-based; details: Homo sapiens;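 further: growth inhibition of NCI-H82 cells, measured with a cell viability readout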
Description: SANGER: Inhibition of human NCI-H82 cell growth in a cell viability assay.

HCC1569 = assay type: functional, cell-based, Homo sapiens; details: Homo sapiens, HCC1569;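 further: growth inhibition of human HCC1569 cells, read out with a cell viability assay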
Description: SANGER: Inhibition of human HCC1569 cell growth in a cell viability assay.

EKVX = assay type: functional, cell-based, Homo sapiens; details: Homo sapiens, EKVX;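 further: growth inhibition of human EKVX cells, read out with a cell viability assay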
Description: SANGER: Inhibition of human EKVX cell growth in a cell viability assay.

ATN-1 = assay type: functional, cell-based; details: Homo sapiens;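 further: growth inhibition of human ATN-1 cells, read out with a cell viability assay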
Description: SANGER: Inhibition of human ATN-1 cell growth in a cell viability assay.

NKM-1 = assay type: functional, cell-based; details: Homo sapiens;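 further: growth inhibition of NKM-1 cells, read out with a cell viability assay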
Description: SANGER: Inhibition of human NKM-1 cell growth in a cell viability assay.

CAL-33 = assay type: functional, cell-based, Homo sapiens; details: Homo sapiens, CAL-33;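 further: growth inhibition of CAL-33 cells, read out with a cell viability assay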
Description: SANGER: Inhibition of human CAL-33 cell growth in a cell viability assay.

UACC-257 = assay type: functional, cell-based, Homo sapiens; details: Homo sapiens, UACC-257
Description: SANGER: Inhibition of human UACC-257 cell growth in a cell viability assay.

SH-4 = assay type: functional, cell-based, Homo sapiens; details: Homo sapiens, SH-4;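 further: growth inhibition of SH-4 cells, read out with a cell viability assay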
Description: SANGER: Inhibition of human SH-4 cell growth in a cell viability assay.

NCI-H358 = assay type: functional, cell-based, Homo sapiens; details: Homo sapiens, NCI-H358;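 further: growth inhibition of NCI-H358 human cells, read out with a cell viability assay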
Description: SANGER: Inhibition of human NCI-H358 cell growth in a cell viability assay.

SK-N-AS = assay type: functional, cell-based, Homo sapiens; details: Homo sapiens, SK-N-AS;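 further: growth inhibition of human SK-N-AS cells, measured with a cell viability assay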
Description: SANGER: Inhibition of human SK-N-AS cell growth in a cell viability assay.

SiHa = assay type: functional, cell-based, Homo sapiens; details: Homo sapiens, SiHa;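 further: Viability-based readout of growth inhibition in SiHa cells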
Description: SANGER: Inhibition of human SiHa cell growth in a cell viability assay.

A-431 = assay type: functional, cell-based, Homo sapiens; details: Homo sapiens, A-431;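 further: growth inhibition of A-431 cells, determined with a cell viability read-out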
Description: SANGER: Inhibition of human A431 cell growth in a cell viability assay.

COR-L105 = assay type: functional, cell-based, Homo sapiens; details: Homo sapiens, COR-L105;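 further: cell growth inhibition determined with a viability assay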
Description: SANGER: Inhibition of human COR-L105 cell growth in a cell viability assay.

MG-63 = assay type: functional, cell-based, Homo sapiens; details: Homo sapiens, MG-63;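 further: growth inhibition of human MG-63 cells, read out with a cell viability assay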
Description: SANGER: Inhibition of human MG-63 cell growth in a cell viability assay.

TGBC24TKB = assay type: functional, cell-based, Homo sapiens; details: Homo sapiens, TGBC24TKB;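 further: growth inhibition of human TGBC24TKB cells, read out with a cell viability assay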
Description: SANGER: Inhibition of human TGBC24TKB cell growth in a cell viability assay.

COLO-679 = assay type: functional, cell-based, Homo sapiens; details: Homo sapiens, COLO-679
Description: SANGER: Inhibition of human COLO-679 cell growth in a cell viability assay.

OS-RC-2 = assay type: functional, cell-based, Homo sapiens; details: Homo sapiens, OS-RC-2;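 further: growth inhibition of human OS-RC-2 cells, measured by a cell viability assay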
Description: SANGER: Inhibition of human OS-RC-2 cell growth in a cell viability assay.

CAL-62 = assay type: functional, cell-based, Homo sapiens; details: Homo sapiens, CAL-62;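 further: growth inhibition of CAL-62 cells, read out with a cell viability assay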
Description: SANGER: Inhibition of human CAL-62 cell growth in a cell viability assay.

GCIY = assay type: functional, cell-based, Homo sapiens; details: Homo sapiens, GCIY;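 further: growth inhibition of the human GCIY cell line, read out by a cell viability assay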
Description: SANGER: Inhibition of human GCIY cell growth in a cell viability assay.

NCI-H596 = assay type: functional, cell-based, Homo sapiens; details: Homo sapiens, NCI-H596;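 further: growth inhibition of NCI-H596 cells, read out with a cell viability assay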
Description: SANGER: Inhibition of human NCI-H596 cell growth in a cell viability assay.

LAN-6 = assay type: functional, cell-based, Homo sapiens; details: Homo sapiens, LAN-6;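 further: growth inhibition of LAN-6 cells, determined with a cell viability assay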
Description: SANGER: Inhibition of human LAN-6 cell growth in a cell viability assay.

LB1047-RCC = assay type: functional, cell-based, Homo sapiens; details: Homo sapiens, LB1047-RCC;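 further: inhibition of cell growth, determined with a cell viability assay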
Description: SANGER: Inhibition of human LB1047-RCC cell growth in a cell viability assay.

CCRF-CEM = assay type: functional, cell-based; details: Homo sapiens;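 further: inhibition of CCRF-CEM cell growth, measured by a cell viability assay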
Description: SANGER: Inhibition of human CCRF-CEM cell growth in a cell viability assay.

D-392MG = assay type: functional, cell-based, Homo sapiens; details: Homo sapiens, D-392MG
ESS-1 = assay type: functional, cell-based, Homo sapiens; details: Homo sapiens, ESS-1;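 further: growth inhibition of human ESS-1 cells, read out by a cell viability assay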
Description: SANGER: Inhibition of human ESS-1 cell growth in a cell viability assay.

NCI-H2347 = assay type: functional, cell-based, Homo sapiens; details: Homo sapiens, NCI-H2347;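 further: growth inhibition of the cell line, read out with a cell viability assay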
Description: SANGER: Inhibition of human NCI-H2347 cell growth in a cell viability assay.

WM-115 = assay type: functional, cell-based, Homo sapiens; details: Homo sapiens, WM-115
Description: SANGER: Inhibition of human WM-115 cell growth in a cell viability assay.

RKO = assay type: functional, cell-based, Homo sapiens; details: Homo sapiens, RKO;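 further: growth inhibition of human RKO cells, read out with a cell viability assay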
Description: SANGER: Inhibition of human RKO cell growth in a cell viability assay.

`COC(=O)CNC(=O)C(=O)OC` showed an IC50 (CWR22R) of 304 µM, an IC50 (Lu-65) of 2.36 mM and an IC50 (no-11) of 208 µM. It also gave an IC50 (KYSE-270) of 275 µM, an IC50 (NCI-H2087) of 108 µM and an IC50 (NCI-H292) of 103 µM. For the same molecule, the IC50 (GP5d) was 636 µM, the IC50 (HH) was 34 µM and the IC50 (SW1573) was 2.52 mM. For the same molecule, the IC50 (NCI-H1395) was > 4000 µM, the IC50 (SW872) was 603 µM and the IC50 (S-117) was 3.86 mM. For the same molecule, the IC50 (ES7) was 478 µM, the IC50 (LoVo) was 951 µM and the IC50 (BE-13) was 180 µM. For the same molecule, the IC50 (RH-1) was 1360 µM, the IC50 (EW-24) was 2.29 mM and the IC50 (MDA-MB-415) was 2.93 mM. For the same molecule, the IC50 (KG-1) was 81.6 µM, the IC50 (KLE) was 1580 µM and the IC50 (IST-MES1) was > 4000 µM. The IC50 (C-33-A) was > 4000 µM, the IC50 (A704) was 1140 µM and the IC50 (CP50-MEL-B) was > 4000 µM. The IC50 (NCI-H82) was > 4000 µM, the IC50 (HCC1569) was 1680 µM and the IC50 (EKVX) was 513 µM. The IC50 (ATN-1) was 601 µM, the IC50 (NKM-1) was 126 µM and the IC50 (CAL-33) was 242 µM. It also gave an IC50 (UACC-257) of 1090 µM, an IC50 (SH-4) of 2420 µM and an IC50 (NCI-H358) of 103 µM. It also gave an IC50 (SK-N-AS) of 971 µM, an IC50 (SiHa) of 1180 µM and an IC50 (A-431) of 97.5 µM. For the same molecule, the IC50 (COR-L105) was 26.4 µM, the IC50 (MG-63) was 144 µM and the IC50 (TGBC24TKB) was > 4000 µM. For the same molecule, the IC50 (COLO-679) was 157 µM, the IC50 (OS-RC-2) was 1750 µM and the IC50 (CAL-62) was 1050 µM. The IC50 (GCIY) was 109 µM, the IC50 (NCI-H596) was > 4000 µM and the IC50 (LAN-6) was 2080 µM. For the same molecule, the IC50 (LB1047-RCC) was 50 µM, the IC50 (CCRF-CEM) was 37.8 µM and the IC50 (D-392MG) was 1570 µM. It also gave an IC50 (ESS-1) of 198 µM, an IC50 (NCI-H2347) of 121 µM and an IC50 (WM-115) of 220 µM. For the same molecule, the IC50 (RKO) was 2460 µM.
`O=C(c1cc(Cc2n[nH]c(=O)c3ccccc23)ccc1F)N1CCN(C(=O)C2CC2)CC1` [OLAPARIB] was tested, and the IC50 (CWR22R) was > 5 µM, the IC50 (Lu-65) was > 0.005 mM and the IC50 (no-11) was > 5 µM. The IC50 (KYSE-270) was > 5 µM, the IC50 (NCI-H2087) was > 5 µM and the IC50 (NCI-H292) was > 5 µM. For the same molecule, the IC50 (GP5d) was > 5 µM, the IC50 (HH) was > 5 µM and the IC50 (SW1573) was > 0.005 mM. The IC50 (NCI-H1395) was > 5 µM, the IC50 (SW872) was > 5 µM and the IC50 (S-117) was > 0.005 mM. The IC50 (ES7) was > 5 µM, the IC50 (LoVo) was > 5 µM and the IC50 (BE-13) was > 5 µM. The IC50 (RH-1) was > 5 µM, the IC50 (EW-24) was > 0.005 mM and the IC50 (MDA-MB-415) was > 0.005 mM. For the same molecule, the IC50 (KG-1) was > 5 µM, the IC50 (KLE) was > 5 µM and the IC50 (IST-MES1) was > 5 µM. The IC50 (C-33-A) was > 5 µM, the IC50 (A704) was > 5 µM and the IC50 (CP50-MEL-B) was > 5 µM. For the same molecule, the IC50 (NCI-H82) was > 5 µM, the IC50 (HCC1569) was > 5 µM and the IC50 (EKVX) was > 5 µM. The IC50 (ATN-1) was > 5 µM, the IC50 (NKM-1) was 1.25 µM and the IC50 (CAL-33) was > 5 µM. The IC50 (UACC-257) was > 5 µM, the IC50 (SH-4) was > 5 µM and the IC50 (NCI-H358) was > 5 µM. The IC50 (SK-N-AS) was > 5 µM, the IC50 (SiHa) was > 5 µM and the IC50 (A-431) was > 5 µM. The IC50 (COR-L105) was > 5 µM, the IC50 (MG-63) was > 5 µM and the IC50 (TGBC24TKB) was > 5 µM. The IC50 (COLO-679) was > 5 µM, the IC50 (OS-RC-2) was > 5 µM and the IC50 (CAL-62) was > 5 µM. For the same molecule, the IC50 (GCIY) was > 5 µM, the IC50 (NCI-H596) was > 5 µM and the IC50 (LAN-6) was > 5 µM. The IC50 (LB1047-RCC) was > 5 µM, the IC50 (CCRF-CEM) was > 5 µM and the IC50 (D-392MG) was > 5 µM. For the same molecule, the IC50 (ESS-1) was > 5 µM, the IC50 (NCI-H2347) was > 5 µM and the IC50 (WM-115) was > 5 µM. For the same molecule, the IC50 (RKO) was > 5 µM.
For `O=C(NOCC1CC1)c1ccc(F)c(F)c1Nc1ccc(I)cc1Cl` [CI-1040], the IC50 (CWR22R) was > 10 µM, the IC50 (Lu-65) was > 0.01 mM and the IC50 (no-11) was > 10 µM. The IC50 (KYSE-270) was > 10 µM, the IC50 (NCI-H2087) was 3.85 µM and the IC50 (NCI-H292) was 1.87 µM. For the same molecule, the IC50 (GP5d) was 0.983 µM, the IC50 (HH) was 4.42 µM and the IC50 (SW1573) was > 0.01 mM. For the same molecule, the IC50 (NCI-H1395) was > 10 µM, the IC50 (SW872) was > 10 µM and the IC50 (S-117) was > 0.01 mM. For the same molecule, the IC50 (ES7) was > 10 µM, the IC50 (LoVo) was 1.46 µM and the IC50 (BE-13) was 7.34 µM. For the same molecule, the IC50 (RH-1) was > 10 µM, the IC50 (EW-24) was > 0.01 mM and the IC50 (MDA-MB-415) was > 0.01 mM. For the same molecule, the IC50 (KG-1) was 0.307 µM, the IC50 (KLE) was > 10 µM and the IC50 (IST-MES1) was > 10 µM. For the same molecule, the IC50 (C-33-A) was > 10 µM, the IC50 (A704) was > 10 µM and the IC50 (CP50-MEL-B) was 0.173 µM. The IC50 (NCI-H82) was > 10 µM, the IC50 (HCC1569) was > 10 µM and the IC50 (EKVX) was > 10 µM. The IC50 (ATN-1) was > 10 µM, the IC50 (NKM-1) was > 10 µM and the IC50 (CAL-33) was 5.12 µM. The IC50 (UACC-257) was 0.965 µM, the IC50 (SH-4) was 0.463 µM and the IC50 (NCI-H358) was 4.45 µM. The IC50 (SK-N-AS) was 1.08 µM, the IC50 (SiHa) was > 10 µM and the IC50 (A-431) was 6.24 µM. The IC50 (COR-L105) was 6.65 µM, the IC50 (MG-63) was > 10 µM and the IC50 (TGBC24TKB) was > 10 µM. For the same molecule, the IC50 (COLO-679) was 0.327 µM, the IC50 (OS-RC-2) was > 10 µM and the IC50 (CAL-62) was 4.07 µM. For the same molecule, the IC50 (GCIY) was > 10 µM, the IC50 (NCI-H596) was > 10 µM and the IC50 (LAN-6) was 4.32 µM. For the same molecule, the IC50 (LB1047-RCC) was 4.74 µM, the IC50 (CCRF-CEM) was > 10 µM and the IC50 (D-392MG) was > 10 µM. For the same molecule, the IC50 (ESS-1) was > 10 µM, the IC50 (NCI-H2347) was > 10 µM and the IC50 (WM-115) was 0.493 µM. It also gave an IC50 (RKO) of 8.89 µM.
